{"source": "patent US5677285A", "about": "“Derivatives of neuraminic acid” (Fidia S.P.A., priority 1992, dated 1997)", "key": {"neonatal rats": {"tested_on": "neonatal rats", "test": "Cerebral damage induced by icv injection of N-methyl-D-aspartate, total brain weight", "format": "in vivo", "conditions": "for Total brain weight: NMDA 25 nmoles icv, 1 hour before and immediately after NMDA, day 12", "description": "Experiments were performed on 7 day old neonatal rats weighing ca. 13 grams. […] The excitotoxin was solubilized in saline, and the pH was brought to 7.4 by adding 1N NaOH. The NMDA injection (25 nmoles/μl) was performed slowly (2 minutes) at the level of the right lateral ventricle utilizing a Hamilton syringe. Saline was administered to control animals (1 μl icv).\nThe compound was administered subcutaneously (sc) after suspension in 1% DMSO (experiment No. 1) or in 0.5% tragacanth (experiment No. 2). The compound was tested at the following doses: 1-3-5 mg/kg sc.\nThe treatment was conducted performing two administrations:\n1 hour before NMDA injection;\nimmediately after NMDA injection.\nThe number of animals utilized in each experimental group (corresponding to the total number of animals, i.e., experiment 1+experiment 2, according to Table 3) is indicated in brackets.\nAnimals were sacrificed on the 12th day (i.e., 5 days after NMDA injection) for the evaluation of the in toto brain weight, defined in mg.\nThe statistical significance was evaluated using Dunnett's test."}, "cerebellar granule cells": {"tested_on": "cerebellar granule cells", "test": "Extracellular glutamate and aspartate content in potassium induced depolarization (HPLC)", "format": "cell-based, Sprague-Dawley rats", "description": "Primary cell cultures of cerebellar granule cells were prepared from 8 day old Sprague-Dawley rats.\nNeurons were grown in 35 mm plates for 11-13 days and maintained in a humid environment (95% air and 5% CO2). Cultures (3×10^6 cells/plate) are mainly formed by granule cells (95%, with a small amount (5%) of glial cells (Gallo V. et al.: Selective release of glutamate from cerebellar granule cells differentiating in culture. Proc. Natl. Acad. Sci. USA 79, 7919-23, 1982). Glial proliferation was prevented by arabinofuranoside cytosine.\nDerivative ND37 was solubilized at a concentration of […] in dimethylsulfoxide (1% DMSO), and then diluted at various concentrations (0.1-1-10-20 μM) in Locke's solution (154 mM NaCl/5.6 mM KCl/3.6 mM NaHCO3 /2.3 mM CaCl2 /1 mM MgCl2 /5.6mM glucose/5 mM HEPES, pH 7.4). […]\nThe cell culture medium was aspirated from the plates. Plates were washed (3×2 ml) with Locke's solution, and solutions (750 μl) containing the compound to be tested (concentrations from 0.1 to 20 μM) were added and incubated for 2 hours in an incubator at 37° C. (5% CO2) both in the presence and absence of different depolarizing concentrations of KCl (between 5 and 50 mM). The incubation medium was gathered, filtered through a 0.2 μ filter, and processed (220 μl) for the analysis of the amino acid content.\nThe glutamate and aspartate content (expressed as μM) was evaluated by HPLC (high pressure liquid chromatography), according to Bidlingmeryer B. A. et al., J. Chromatogr. 336, 93-104, 1984."}, "[1]": {"conditions": "controls + ND 37 (20 uM), no KCl"}, "[2]": {"conditions": "group 3: KCl (50 mM) + ND37 (20 uM) as printed, corresponding group KCl (30 mM)"}, "[3]": {"conditions": "group 4: KCl (50 mM) + ND37 (20 uM), Table 5"}, "[4]": {"conditions": "group 5: KCl (50 mM) + ND37 (20 uM) as printed, corresponding group KCl (25 mM)"}, "[5]": {"conditions": "group 6: KCl (50 mM) + ND37 (20 uM) as printed, corresponding group KCl (15 mM)"}}, "note": "Read-outs that look alike come from different tables or passages of the source.", "data": [{"smiles": "CCCCCCCCCCCCCCCC(=O)NC1C(O)CC(OCC)(C(=O)N(C)C)OC1C(O)C(O)CO", "note": "(stereo not drawn) [ND37, β-2-O-ethylglycoside of the dimethylamide of N-palmitoylneuraminic acid]", "values": [{"measurement": "efficacy against NMDA brain damage", "setting": "neonatal rats; 1 mg/kg sc, p<0.01", "value": "significatively effective"}, {"measurement": "reduction of brain damage induced by the excitotoxin (lowering of total brain weight)", "setting": "neonatal rats; 1-3-5 mg/kg sc", "value": "effective in reducing the brain damage"}, {"measurement": "Total brain weight", "setting": "neonatal rats; Experiment n.1 (vehicle = DMSO 1%), 1 mg/kg sc", "value": 960, "unit": "mg"}, {"measurement": "Total brain weight", "setting": "neonatal rats; Experiment n.1 (vehicle = DMSO 1%), 3 mg/kg sc", "value": 968, "unit": "mg"}, {"measurement": "Total brain weight", "setting": "neonatal rats; Experiment n.1 (vehicle = DMSO 1%), 5 mg/kg sc", "value": 959, "unit": "mg"}, {"measurement": "Total brain weight", "setting": "neonatal rats; Experiment n.2 (0.5% tragacanth), 1 mg/kg sc", "value": 1019, "unit": "mg"}, {"measurement": "Total brain weight", "setting": "neonatal rats; Experiment n.2 (0.5% tragacanth), 3 mg/kg sc", "value": 977, "unit": "mg"}, {"measurement": "Total brain weight", "setting": "neonatal rats; Experiment n.2 (0.5% tragacanth), 5 mg/kg sc", "value": 976, "unit": "mg"}, {"measurement": "glutamate increase induced by KCl in the culture medium", "setting": "cerebellar granule cells; 20 μM", "value": "completely abolished"}, {"measurement": "extracellular increase of glutamate and aspartate induced by KCl", "setting": "cerebellar granule cells; 20 μM, KCl 15, 25, 30, and 50 mM", "value": "completely abolished"}, {"measurement": "Extracellular glutamate content", "setting": "cerebellar granule cells; KCl (50 mM) + ND37 (0.1 uM)", "value": "12.60 ± 0.57", "unit": "µM"}, {"measurement": "Extracellular glutamate content", "setting": "cerebellar granule cells; KCl (50 mM) + ND37 (1 uM)", "value": "13.30 ± 1.33", "unit": "µM"}, {"measurement": "Extracellular glutamate content", "setting": "cerebellar granule cells; KCl (50 mM) + ND37 (10 uM)", "value": "5.60 ± 2.37", "unit": "µM"}, {"measurement": "Extracellular glutamate content", "setting": "cerebellar granule cells; KCl (50 mM) + ND37 (20 uM), Table 4", "value": "0.11 ± 0.09", "unit": "µM"}, {"measurement": "activity at 0.1 µM", "setting": "cerebellar granule cells; Rattus norvegicus, 2 h, KCl (50 mM) + ND37 (0.1 uM)", "value": 72, "unit": "%"}, {"measurement": "activity at 1 µM", "setting": "cerebellar granule cells; Rattus norvegicus, 2 h, KCl (50 mM) + ND37 (1 uM)", "value": 76, "unit": "%"}, {"measurement": "activity at 10 µM", "setting": "cerebellar granule cells; Rattus norvegicus, 2 h, KCl (50 mM) + ND37 (10 uM)", "value": 32, "unit": "%"}, {"measurement": "activity at 20 µM", "setting": "cerebellar granule cells; Rattus norvegicus, 2 h, KCl (50 mM) + ND37 (20 uM), Table 4, read-out: % KCl 50 Mm (extracellular glutamate)", "value": 0.01, "unit": "%"}, {"measurement": "activity at 20 µM", "setting": "cerebellar granule cells; Rattus norvegicus, 2 h, group 3: KCl (50 mM) + ND37 (20 uM) as printed, corresponding group KCl (30 mM), read-out: % corresp. KCl (aspartate)", "value": 0.06, "unit": "%"}, {"measurement": "activity at 20 µM", "setting": "cerebellar granule cells; Rattus norvegicus, 2 h, group 3: KCl (50 mM) + ND37 (20 uM) as printed, corresponding group KCl (30 mM), read-out: % corresp. KCl (glutamate)", "value": 0.01, "unit": "%"}, {"measurement": "activity at 20 µM", "setting": "cerebellar granule cells; Rattus norvegicus, 2 h, group 4: KCl (50 mM) + ND37 (20 uM), Table 5, read-out: % corresp. KCl (aspartate)", "value": 0.13, "unit": "%"}, {"measurement": "activity at 20 µM", "setting": "cerebellar granule cells; Rattus norvegicus, 2 h, group 4: KCl (50 mM) + ND37 (20 uM), Table 5, read-out: % corresp. KCl (glutamate)", "value": 0.02, "unit": "%"}, {"measurement": "activity at 20 µM", "setting": "cerebellar granule cells; Rattus norvegicus, 2 h, group 5: KCl (50 mM) + ND37 (20 uM) as printed, corresponding group KCl (25 mM), read-out: % corresp. KCl (aspartate)", "value": 0.28, "unit": "%"}, {"measurement": "activity at 20 µM", "setting": "cerebellar granule cells; Rattus norvegicus, 2 h, group 5: KCl (50 mM) + ND37 (20 uM) as printed, corresponding group KCl (25 mM), read-out: % corresp. KCl (glutamate)", "value": 0.06, "unit": "%"}, {"measurement": "activity at 20 µM", "setting": "cerebellar granule cells; Rattus norvegicus, 2 h, group 6: KCl (50 mM) + ND37 (20 uM) as printed, corresponding group KCl (15 mM), read-out: % corresp. KCl (aspartate)", "value": 0.09, "unit": "%"}, {"measurement": "activity at 20 µM", "setting": "cerebellar granule cells; Rattus norvegicus, 2 h, group 6: KCl (50 mM) + ND37 (20 uM) as printed, corresponding group KCl (15 mM), read-out: % corresp. KCl (glutamate)", "value": 0.34, "unit": "%"}, {"measurement": "inhibition at 0.1 µM", "setting": "cerebellar granule cells; Rattus norvegicus, 2 h, 0.1 μM, read-out: reduction of extracellular glutamate induced by KCl", "value": "~30", "unit": "%"}, {"measurement": "Extracell. aspartate content", "setting": "cerebellar granule cells; [1]", "value": 0.039, "unit": "µM"}, {"measurement": "Extracell. glutamate content", "setting": "cerebellar granule cells; [1]", "value": 0.362, "unit": "µM"}, {"measurement": "basal levels (controls) of extracellular glutamate and aspartate", "setting": "cerebellar granule cells; doses up to 20 μM", "value": "did not modify"}, {"measurement": "Extracell. aspartate content", "setting": "cerebellar granule cells; [2]", "value": 0.063, "unit": "µM"}, {"measurement": "Extracell. glutamate content", "setting": "cerebellar granule cells; [2]", "value": 0.318, "unit": "µM"}, {"measurement": "Extracell. aspartate content", "setting": "cerebellar granule cells; [3]", "value": 0.078, "unit": "µM"}, {"measurement": "Extracell. glutamate content", "setting": "cerebellar granule cells; [3]", "value": 0.246, "unit": "µM"}, {"measurement": "Extracell. aspartate content", "setting": "cerebellar granule cells; [4]", "value": 0.107, "unit": "µM"}, {"measurement": "Extracell. glutamate content", "setting": "cerebellar granule cells; [4]", "value": 0.330, "unit": "µM"}, {"measurement": "Extracell. aspartate content", "setting": "cerebellar granule cells; [5]", "value": 0.046, "unit": "µM"}, {"measurement": "Extracell. glutamate content", "setting": "cerebellar granule cells; [5]", "value": 0.899, "unit": "µM"}]}]}
